Test results from US9981989B2, “Ataxia telengiectasia and Rad3-related (ATR) protein kinase inhibitors” (Atrin Pharmaceuticals LLC, priority 2014, dated 2018).

What was measured:
Jurkat cells = assay: Phenotypical evaluation of ATR inhibition: S-phase arrest of Jurkat cells under aphidicolin replication stress, flow cytometry; type: cell-based, human; settings: 0.2 μM aphidicolin, 24 hours
Method: It is known that inhibition of ATR in cells under replicative stress stalls DNA replication, which prevents cells from progressing through S-phase, leading to an accumulation of cells in this cell cycle phase (Kevin D. Smith, et al., Tim-Tipin dysfunction creates an indispensable reliance on the ATR-Chk1 pathway for continued DNA synthesis, J. Cell Biol. 2009, 187, 15-23). In the present experiment Jurkat cells were treated with 0.2 μM aphidicolin to induce replication stress in the presence of test compounds, at concentrations ranging from 10 μM to 0.1 μM, for 24 hours. Cells were fixed and cell-cycle profiles examined by flow cytometry as in Smith, J. Cell Bio. 2009. Test compounds were considered active if stalling of the cells in S-phase was observed.

ATR = target: T1, ATR (Homo sapiens, UniProt Q13535); assay: ATR cellular kinase activity: Chk1 and H2AX phosphorylation in HCT119 WT BCL/XL-GFP cells with aphidicolin, western blot; type: cell-based; settings: 5 μM aphidicolin, 4 hours
T1 construct: endogenous in cells; host or cells: HCT119 WT BCL/XL-GFP cells
T1 sequence (Q13535 whole entry): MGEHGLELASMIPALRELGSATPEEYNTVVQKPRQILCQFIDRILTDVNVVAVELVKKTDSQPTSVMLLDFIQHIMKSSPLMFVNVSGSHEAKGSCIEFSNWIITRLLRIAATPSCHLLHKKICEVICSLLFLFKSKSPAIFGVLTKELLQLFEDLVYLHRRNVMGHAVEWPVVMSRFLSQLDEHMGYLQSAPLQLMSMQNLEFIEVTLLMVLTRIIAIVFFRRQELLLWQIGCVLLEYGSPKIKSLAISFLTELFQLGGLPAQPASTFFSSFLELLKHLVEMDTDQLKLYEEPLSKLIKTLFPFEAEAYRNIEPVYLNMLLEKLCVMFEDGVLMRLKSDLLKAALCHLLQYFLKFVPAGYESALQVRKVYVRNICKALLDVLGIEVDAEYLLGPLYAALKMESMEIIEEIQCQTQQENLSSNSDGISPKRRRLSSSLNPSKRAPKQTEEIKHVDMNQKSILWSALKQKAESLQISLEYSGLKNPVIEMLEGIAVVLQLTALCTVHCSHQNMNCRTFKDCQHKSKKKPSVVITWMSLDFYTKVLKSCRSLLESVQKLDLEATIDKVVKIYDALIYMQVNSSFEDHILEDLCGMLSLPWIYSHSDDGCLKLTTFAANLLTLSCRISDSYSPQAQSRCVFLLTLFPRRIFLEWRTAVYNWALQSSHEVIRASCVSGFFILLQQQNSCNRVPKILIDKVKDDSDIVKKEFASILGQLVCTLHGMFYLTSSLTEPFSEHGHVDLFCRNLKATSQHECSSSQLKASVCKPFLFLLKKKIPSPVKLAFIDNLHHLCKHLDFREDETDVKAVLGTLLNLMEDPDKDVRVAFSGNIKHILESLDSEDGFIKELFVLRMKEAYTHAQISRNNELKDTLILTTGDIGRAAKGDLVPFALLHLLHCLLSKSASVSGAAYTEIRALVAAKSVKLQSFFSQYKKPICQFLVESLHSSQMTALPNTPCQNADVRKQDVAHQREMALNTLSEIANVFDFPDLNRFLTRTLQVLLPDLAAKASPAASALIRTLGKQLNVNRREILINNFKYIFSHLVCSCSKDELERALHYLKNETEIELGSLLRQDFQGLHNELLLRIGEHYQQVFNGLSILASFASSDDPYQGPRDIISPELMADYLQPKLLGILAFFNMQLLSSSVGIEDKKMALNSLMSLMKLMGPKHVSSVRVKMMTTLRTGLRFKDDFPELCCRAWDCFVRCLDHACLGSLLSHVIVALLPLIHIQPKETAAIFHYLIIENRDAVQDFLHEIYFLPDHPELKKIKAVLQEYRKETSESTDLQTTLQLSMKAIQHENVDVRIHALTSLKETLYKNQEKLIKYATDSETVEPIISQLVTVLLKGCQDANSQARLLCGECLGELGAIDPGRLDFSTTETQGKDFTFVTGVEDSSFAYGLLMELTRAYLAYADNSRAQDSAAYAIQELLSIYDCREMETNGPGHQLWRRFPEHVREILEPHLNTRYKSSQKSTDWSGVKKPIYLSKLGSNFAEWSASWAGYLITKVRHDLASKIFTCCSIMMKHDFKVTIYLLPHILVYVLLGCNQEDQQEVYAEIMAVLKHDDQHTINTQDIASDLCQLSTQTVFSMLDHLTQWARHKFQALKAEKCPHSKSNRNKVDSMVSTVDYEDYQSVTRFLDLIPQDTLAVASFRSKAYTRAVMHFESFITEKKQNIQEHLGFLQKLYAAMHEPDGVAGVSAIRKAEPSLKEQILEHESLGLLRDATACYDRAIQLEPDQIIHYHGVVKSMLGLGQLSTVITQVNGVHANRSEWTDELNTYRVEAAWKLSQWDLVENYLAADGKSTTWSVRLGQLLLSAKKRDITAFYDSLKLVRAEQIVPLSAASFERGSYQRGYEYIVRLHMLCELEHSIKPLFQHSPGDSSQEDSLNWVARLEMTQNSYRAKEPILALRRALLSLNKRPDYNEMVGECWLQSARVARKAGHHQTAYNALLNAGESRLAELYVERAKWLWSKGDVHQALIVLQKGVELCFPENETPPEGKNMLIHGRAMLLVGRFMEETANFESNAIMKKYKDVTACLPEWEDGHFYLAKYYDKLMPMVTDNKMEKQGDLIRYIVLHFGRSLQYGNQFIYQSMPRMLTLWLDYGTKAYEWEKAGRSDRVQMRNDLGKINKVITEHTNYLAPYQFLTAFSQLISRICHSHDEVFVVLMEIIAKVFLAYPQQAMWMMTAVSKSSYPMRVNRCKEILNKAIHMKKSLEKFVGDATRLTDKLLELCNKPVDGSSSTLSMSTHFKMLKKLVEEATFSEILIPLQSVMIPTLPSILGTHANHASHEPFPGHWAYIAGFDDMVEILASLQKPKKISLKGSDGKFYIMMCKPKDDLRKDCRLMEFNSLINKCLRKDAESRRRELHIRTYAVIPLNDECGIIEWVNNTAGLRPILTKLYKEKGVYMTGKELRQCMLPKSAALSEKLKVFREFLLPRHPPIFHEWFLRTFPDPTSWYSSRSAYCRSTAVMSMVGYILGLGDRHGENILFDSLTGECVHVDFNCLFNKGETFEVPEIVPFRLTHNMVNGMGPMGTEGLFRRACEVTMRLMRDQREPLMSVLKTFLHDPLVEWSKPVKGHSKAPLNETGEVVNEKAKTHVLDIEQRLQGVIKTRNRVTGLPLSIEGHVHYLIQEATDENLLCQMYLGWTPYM
T1 sequence (Q8WXE1 whole entry partner): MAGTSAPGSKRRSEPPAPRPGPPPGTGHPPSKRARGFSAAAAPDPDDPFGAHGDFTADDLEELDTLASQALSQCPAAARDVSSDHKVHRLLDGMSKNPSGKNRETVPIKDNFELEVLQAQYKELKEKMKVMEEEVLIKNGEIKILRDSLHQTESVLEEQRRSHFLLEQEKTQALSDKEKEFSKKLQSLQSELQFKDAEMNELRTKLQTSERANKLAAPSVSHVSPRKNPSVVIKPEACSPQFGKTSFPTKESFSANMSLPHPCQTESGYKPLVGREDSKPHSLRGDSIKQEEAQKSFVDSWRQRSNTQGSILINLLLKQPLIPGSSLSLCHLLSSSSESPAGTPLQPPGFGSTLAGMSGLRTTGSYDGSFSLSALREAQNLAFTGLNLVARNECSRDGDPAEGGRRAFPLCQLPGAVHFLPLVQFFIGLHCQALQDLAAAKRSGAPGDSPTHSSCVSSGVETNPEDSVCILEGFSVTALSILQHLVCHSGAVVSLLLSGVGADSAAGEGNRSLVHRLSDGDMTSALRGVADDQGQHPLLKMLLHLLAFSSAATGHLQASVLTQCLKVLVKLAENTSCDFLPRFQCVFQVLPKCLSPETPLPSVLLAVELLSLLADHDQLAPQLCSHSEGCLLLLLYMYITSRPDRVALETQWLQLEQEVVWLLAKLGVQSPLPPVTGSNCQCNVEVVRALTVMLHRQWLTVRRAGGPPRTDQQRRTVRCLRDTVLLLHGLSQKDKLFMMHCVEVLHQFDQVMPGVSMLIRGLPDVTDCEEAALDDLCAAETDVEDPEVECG
Source text: (§1) Chk1 phosphorylation, ATR's primary downstream target, is used as a read-out for ATR activity (Liu Q. et al., Chk1 is an essential kinase that is regulated by Atr and required for the G(2)/M DNA damage checkpoint, Genes Dev. 2000, Jun. 15, 14(12), 1448-1459; and (Jia Li and David F. Stern, Regulation of CHK2 by DNA-dependent Protein Kinase, J Biol. Chem. 2005, 280, 12041-12050). Chk2 phosphorylation (stimulated by 5 Gy irradiation), is a marker of ATM and DNA-PKcs activity, which together with ATR are closely related DNA-damage responsive PIKK family kinases (Shuhei Matsuoka et al., Ataxia telangiectasia-mutated phosphorylates Chk2 in vivo and in vitro, Proceedings of the National Academy of Sciences of the USA, 2000, 97(19), 10389-10394; Li J and Stern D F, Regulation of CHK2 by DNA-dependent protein kinase. The Journal of biological chemistry, 2005, 280, 12041-12050).
HCT119 WT BCL/XL-GFP cells were incubated with decreasing concentrations of test compounds (10-0.003 μM) and 5 μM aphidicolin for 4 hours prior to lysis. Cell lysis and western blotting were performed as in Gilad, Cancer Res, 2010, using the following antibodies as per manufacturers' instructions: pCHK1 (Ser345) (Cell signaling 133D3), pH2AX (S139) (Millipore 05636), GAPDH (loading control, Chemicon MAB374), and MCM3 (loading control, Santa Cruz sc-9850). Test compounds were considered active if significant inhibition of Chk1 phosphorylation was observed.

Chk2 phosphorylation = assay: ATR kinase selectivity: Chk2 phosphorylation in HCT119 WT BCL/XL-GFP cells after 5 Gy irradiation, western blot; type: cell-based, human; settings: 5-0.01 μM compound, stimulated by 5 Gy irradiation, pChk2 (T68) (FIG. 4C)
Source text: as §1
HCT119 WT BCL/XL-GFP cells were incubated with decreasing concentrations of test compounds (5-0.01 μM) alone for 30 minutes followed by 5 Gy irradiation and cell lysis 20 minutes post irradiation. Cell lysis and western blotting were performed as in Gilad, Cancer Res, 2010, using the following antibodies as per manufacturers' instructions: pChk2 (T68) (Cell Signaling 2661S), GAPDH (loading control, Chemicon MAB374), and MCM3 (loading control, Santa Cruz sc-9850).

[1] = 1.25 μM compound, Jurkat cells (FIGS. 3A, 3B)

| concentration at which Chk1 phosphorylation is completely inhibited (ATR; pCHK1 (Ser345) (FIG. 4B)) [μLM] | lowest dose able to limit phosphorylation of Chk1 (ATR; pCHK1 (Ser345) (FIG. 4B)) [nM] | H2AX phosphorylation (DNA double strand breaks) (ATR; pH2AX (S139) (FIG. 4B)) | SMILES | inhibition of cell cycle progression by accumulation of cells in S-phase (Jurkat cells; [1]) | inhibition of cell cycle progression by accumulation of cells in S-phase (Jurkat cells; 2.5 μM compound, Jurkat cells (FIG. 2)) | inhibition of cell cycle progression by accumulation of cells in S-phase (Jurkat cells; 10 μM compound, Jurkat cells (FIG. 1)) | levels of Chk2 phosphorylation (Chk2 phosphorylation) |
| --- | --- | --- | --- | --- | --- | --- | --- |
| – | – | – | CNS(=O)(=O)c1ccc(-c2cnc(N)c(C(=O)Nc3ccccc3OCCOCCOCCO)n2)cc1 [IM11, 3-amino-N-(2-(2-(2-(2-hydroxyethoxy)ethoxy)ethoxy)phenyl)-6-(4-(N-methylsulfamoyl)phenyl)pyrazine-2-carboxamide] | inactive | – | – | – |
| – | – | – | CN1CCOCCOCCOc2ccccc2NC(=O)c2nc(cnc2N)-c2ccc(cc2)S1(=O)=O [P(1)] | significant inhibition of cell cycle progression | significant inhibition of cell cycle progression | significant inhibition of cell cycle progression | – |
| ≥ 1 | 30 | increased H2AX phosphorylation | CNCc1cccc2c1OCCOCCOCCN(C)S(=O)(=O)c1ccc(cc1)-c1cnc(N)c(n1)C(=O)N2 [P(4)] | – | – | – | did not affect |
